Measured values as given in paper PMC12260505, “First-in-Human Phase I/IIa Study of the First-in-Class CDK2/4/6 Inhibitor PF-06873600 Alone or with Endocrine Therapy in Patients with Breast Cancer” (Clinical Cancer Research, 2025).
Several values for one entry are separate records, joined by “and”; a condition that tells them apart may be missing. Identical values can stand only once.

Assay: Plasma PF-06873600 pharmacokinetics (LC/MS-MS, noncompartmental analysis)
Type: in vivo, human
Procedure: Plasma samples were analyzed for PF-06873600 concentrations at Q2 Solutions using a validated analytic assay in compliance with Pfizer standard operating procedures. PF-06873600 samples were assayed by a validated LC/MS-MS using positive ionization mode. PK parameters were calculated using noncompartmental analysis of plasma concentration–time data.

[1] = Cycle 1 Day 15, Part 1A 1 mg BID IR
[2] = Cycle 1 Day 15, Part 1A 2 mg BID IR
[3] = Cycle 1 Day 15, Part 1A 5 mg BID IR
[4] = Cycle 1 Day 15, Part 1A 10 mg BID IR
[5] = Cycle 1 Day 15, Part 1A 25 mg BID Biomarker IR
[6] = Cycle 1 Day 15, Part 1A 25 mg BID IR
[7] = Cycle 1 Day 15, Part 1A 35 mg BID IR
[8] = Cycle 1 Day 15, Part 1A 35 mg BID Intm 5/2 IR
[9] = Cycle 1 Day 15, Part 1A 50 mg BID IR
[10] = Cycle 1 Day 15, Part 1B 25 mg BID +Ful IR
[11] = Cycle 1 Day 15, Part 1B 25 mg BID +Let IR
[12] = Cycle 1 Day 15, Part 1C MR 30 mg BID long duration
[13] = Day -4, Part 1C single dose 20 mg MR Long Duration
[14] = Day -7, Part 1C single dose 20 mg MR Short Duration

With `C[C@@]1(O)CCC[C@H]1n1c(=O)c(C(F)F)cc2cnc(NC3CCN(S(C)(=O)=O)CC3)nc21` [PF-06873600] the “Cmax, individual value(s)” value [1] was 10.9 ng/mL, the “Cmin, individual value(s)” value [1] was 0.000 ng/mL and the “Rac (observed accumulation ratio based on AUC), individual value(s)” value [1] was 1.21. The “Tmax, median (range)” value [1] was 1.00 h, the “AUCtau, individual value(s)” value [2] was 51.4 ng·h/mL and 86.9 ng·h/mL and the “CL/F, individual value(s)” value [2] was 23.0 L/h and 38.9 L/h. For the same compound, the “Cmax, individual value(s)” value [2] was 18.2 ng/mL and 45.4 ng/mL, the “Rac (observed accumulation ratio based on AUC), individual value(s)” value [2] was 1.16 and the “Tmax, median (range)” value [2] was 1.25 h. For the same compound, the “Vz/F, individual value(s)” value [2] was 53.3 L and 98.4 L, the “t1/2, individual value(s)” value [2] was 5800 s and 6300 s and the “Cmin, individual value(s)” value (Cycle 1 Day 15, Part 1A 2 mg BID IR (both patients 0.000)) was 0.000 ng/mL. The “AUCtau, individual value(s)” value [3] was 150 ng·h/mL and 483 ng·h/mL, the “CL/F, individual value(s)” value [3] was 10.4 L/h and 33.2 L/h and the “Cmax, individual value(s)” value [3] was 46.3 ng/mL and 126 ng/mL. For the same compound, the “Cmin, individual value(s)” value [3] was 1.19 ng/mL and 23.6 ng/mL, the “Rac (observed accumulation ratio based on AUC), individual value(s)” value [3] was 1.53 and the “Tmax, median (range)” value [3] was 1.20 h. The “Vz/F, individual value(s)” value [3] was 124 L, the “t1/2, individual value(s)” value [3] was 9320 s and the “AUCtau, geometric mean (%CV)” value [4] was 448.8 (25) ng.h/mL. The “CL/F, geometric mean (%CV)” value [4] was 22.28 (24) L/h, the “Cmax, geometric mean (%CV)” value [4] was 124.3 (29) ng/mL and the “Cmin, geometric mean (%CV)” value [4] was 5.499 (5) ng/mL. For the same compound, the “Rac (observed accumulation ratio based on AUC), geometric mean (%CV)” value [4] was 0.7263, the “Tmax, median (range)” value [4] was 2.00 h and the “Vz/F, geometric mean (%CV)” value [4] was 72.17 (19) L. For the same compound, the “t1/2, arithmetic mean±standard deviation” value [4] was 2.250 h, the “AUCtau, geometric mean (%CV)” value [5] was 1010 (40) ng.h/mL and the “CL/F, geometric mean (%CV)” value [5] was 24.76 (40) L/h. The “Cmax, geometric mean (%CV)” value [5] was 246.4 (40) ng/mL, the “Cmin, geometric mean (%CV)” value [5] was 21.28 (130) ng/mL and the “Rac (observed accumulation ratio based on AUC), geometric mean (%CV)” value [5] was 1.254 (49). For the same compound, the “Tmax, median (range)” value [5] was 1.92 h, the “Vz/F, geometric mean (%CV)” value [5] was 99.62 (35) L and the “t1/2, arithmetic mean±standard deviation” value [5] was 2.797 h. For the same compound, the “AUCtau, geometric mean (%CV)” value [6] was 1695 (34) ng.h/mL, the “CL/F, geometric mean (%CV)” value [6] was 14.78 (34) L/h and the “Cmax, geometric mean (%CV)” value [6] was 382.4 (33) ng/mL. For the same compound, the “Cmin, geometric mean (%CV)” value [6] was 37.63 ng/mL, the “Rac (observed accumulation ratio based on AUC), geometric mean (%CV)” value [6] was 1.045 (17) and the “Tmax, median (range)” value [6] was 1.95 h. For the same compound, the “Vz/F, geometric mean (%CV)” value [6] was 57.62 (29) L, the “t1/2, arithmetic mean±standard deviation” value [6] was 2.733 h and the “AUCtau, individual value(s)” value [7] was 2060 ng·h/mL and 2360 ng·h/mL. The “CL/F, individual value(s)” value [7] was 14.8 L/h and 17.0 L/h, the “Cmax, individual value(s)” value [7] was 362 ng/mL and 399 ng/mL and the “Cmin, individual value(s)” value [7] was 52.1 ng/mL and 80.4 ng/mL. The “Rac (observed accumulation ratio based on AUC), individual value(s)” value [7] was 0.822, the “Tmax, median (range)” value [7] was 2.01 h and the “Vz/F, individual value(s)” value [7] was 70.8 L. For the same compound, the “t1/2, individual value(s)” value [7] was 11900 s, the “AUCtau, geometric mean (%CV)” value [8] was 1372 (39) ng.h/mL and the “CL/F, geometric mean (%CV)” value [8] was 25.54 (39) L/h. For the same compound, the “Cmax, geometric mean (%CV)” value [8] was 290.2 (29) ng/mL, the “Cmin, geometric mean (%CV)” value [8] was 25.56 (8) ng/mL and the “Rac (observed accumulation ratio based on AUC), geometric mean (%CV)” value [8] was 0.8893. The “Tmax, median (range)” value [8] was 2.23 h, the “Vz/F, geometric mean (%CV)” value [8] was 99.03 (48) L and the “t1/2, arithmetic mean±standard deviation” value [8] was 2.752 h. The “AUCtau, geometric mean (%CV)” value [9] was 1607 (34) ng.h/mL, the “CL/F, geometric mean (%CV)” value [9] was 21.99 (44) L/h and the “Cmax, geometric mean (%CV)” value [9] was 335.2 (22) ng/mL. For the same compound, the “Cmin, geometric mean (%CV)” value [9] was 25.63 ng/mL, the “Rac (observed accumulation ratio based on AUC), geometric mean (%CV)” value [9] was 1.260 (25) and the “Tmax, median (range)” value [9] was 1.98 h. The “Vz/F, geometric mean (%CV)” value [9] was 75.41 (17) L, the “t1/2, arithmetic mean±standard deviation” value [9] was 2.535 h and the “AUCtau, geometric mean (%CV)” value [10] was 1229 (41) ng.h/mL. The “CL/F, geometric mean (%CV)” value [10] was 20.35 (41) L/h, the “Cmax, geometric mean (%CV)” value [10] was 305.0 (35) ng/mL and the “Cmin, geometric mean (%CV)” value [10] was 21.25 ng/mL. For the same compound, the “Rac (observed accumulation ratio based on AUC), geometric mean (%CV)” value [10] was 1.191 (29), the “Tmax, median (range)” value [10] was 1.88 h and the “Vz/F, geometric mean (%CV)” value [10] was 75.71 (32) L. The “t1/2, arithmetic mean±standard deviation” value [10] was 2.508 h, the “AUCtau, geometric mean (%CV)” value [11] was 1273 (50) ng.h/mL and the “CL/F, geometric mean (%CV)” value [11] was 19.63 (49) L/h. For the same compound, the “Cmax, geometric mean (%CV)” value [11] was 276.5 (31) ng/mL, the “Cmin, geometric mean (%CV)” value [11] was 13.33 ng/mL and the “Rac (observed accumulation ratio based on AUC), geometric mean (%CV)” value [11] was 1.268 (35). For the same compound, the “Tmax, median (range)” value [11] was 2.08 h, the “Vz/F, geometric mean (%CV)” value [11] was 80.33 (27) L and the “t1/2, arithmetic mean±standard deviation” value [11] was 2.468 h. For the same compound, the “AUCtau, geometric mean (%CV)” value [12] was 636.8 (59) ng.h/mL, the “CL/F, geometric mean (%CV)” value [12] was 47.08 (59) L/h and the Cmax, geometric mean (%CV) [12] was 82.1 ng/mL. The “Cmin, geometric mean (%CV)” value [12] was 45.78 (49) ng/mL, the “Tmax, median (range)” value [12] was 2.99 (0.000–4.00) h and the “AUCinf, individual value(s)” value [13] was 584 ng·h/mL and 713 ng·h/mL. The “AUClast, geometric mean (%CV)” value [13] was 469.7 (63) ng.h/mL, the “CL/F, individual value(s)” value [13] was 28.0 L/h and 34.3 L/h and the Cmax, geometric mean (%CV) [13] was 39 ng/mL. The “Tmax, median (range)” value [13] was 12.0 (6.00–12.0) h, the “Vz/F, individual value(s)” value [13] was 163 L and 496 L and the “t1/2, individual value(s)” value [13] was 14500 s and 36000 s. For the same compound, the “AUCinf, geometric mean (%CV)” value [14] was 687.8 (73) ng.h/mL, the “AUClast, geometric mean (%CV)” value [14] was 639.7 (67) ng.h/mL and the “CL/F, geometric mean (%CV)” value [14] was 29.05 (73) L/h. The Cmax, geometric mean (%CV) [14] was 73.7 ng/mL, the “Tmax, median (range)” value [14] was 5.33 (2.00–6.00) h and the “Vz/F, geometric mean (%CV)” value [14] was 218.1 (50) L. The “t1/2, arithmetic mean±standard deviation” value [14] was 6.778 ± 5.7890 h, the “Part of dosing interval with mean steady-state PK concentrations above predicted effective concentrations (Ceff)” value (RDE 25 mg twice daily, Ceff from HCC1428, HCC1806, and Ovar3 models) was “at least 70 % of the dosing interval” and the “Criterion of concentrations above Ceff for at least 70% of the dosing interval” value (RDE 25 mg twice daily, Ceff from the MCF7 model) was “not achieved”. The “Plasma exposures, monotherapy vs combination therapy with fulvestrant or letrozole” value (in vivo) was “largely comparable”.
